Among the data in US20250049806A1, “PHARMACEUTICAL COMPOSITION FOR PROVIDING TREATMENT FOR OR PREVENTING ALPORT SYNDROME” (UBE Corporation, priority 2021, published 2025) are Papp A→B values, retold here.

The data set is described as follows: Transcellular transport test using Caco2 cell. Type of data set: in vitro ADME. Particulars: human, Caco-2, apical-to-basolateral (A-to-B), pH=7.4, 10 µM compound. Here is the method:
Caco2 cells (purchased from ATCC) were cultured in DMEM medium (Thermo Fisher Scientific, Inc., 11965) containing 10% FBS (Thermo Fisher Scientific, Inc., 10082) and 1% penicillin/streptomycin/amphotericin B (Thermo Fisher Scientific, Inc., 15240). A transcellular transport test was carried out in accordance with MultiScreen Caco2 Drug Transport Assembly in a 96-well system (Application Note AN1727EN, MultiScreen Caco-2 Assay System, Merck) by partially modifying it. The Caco2 cells were inoculated at a cell density of 4×10^4 cells/well onto a micropore polycarbonate insert of a 96-well plate (Merck, Millcell-96 culture insert plate 0.4 μm pore size, well membrane area=0.11 cm^2, PSHT004S5) and cultured for 20 to 22 days, and the resulting monolayer was used in the transcellular transport test. The medium of the inoculated cells was replaced with a fresh one every 3 to 4 days.
Apical-to-basolateral (A-to-B) transport in the Caco2 cell monolayer membrane was performed by using HBSS (Thermo Fisher Scientific, Inc., 14025) medium (pH=7.4) containing 20 mM HEPES (Thermo Fisher Scientific, Inc., 15630), and adding HEPES-containing HBSS medium containing 10 µM compound (a 10 mM solution of the compound in DMSO was added at a 1000-fold dilution; final DMSO concentration: 0.1%) at 75 μL/well to the apical side and HEPES-containing HBSS medium supplemented with no compound at 250 μL/well to the basolateral side, followed by culture at 37° C. for 90 minutes. After culture, a 100 μL aliquot was collected from the basolateral side, and the concentration of a permeated compound was measured by LC-MS/MS under measurement conditions mentioned later. Papp (apparent permeability; cm/sec) was calculated from the determined concentration. Papp was determined according to the expression given below by calculating the slope (dA/dt; nmol/sec) of a straight line drawn between two points 0 minutes and zero amount of the compound in a graph plotted with an assay time (90 min) on the abscissa against the amount of the compound in the solution on the permeated side on the ordinate. As for an assay concentration, the concentration in the compound in the HEPES-containing HBSS medium containing the added compound was measured by UV-HPLC under measurement conditions mentioned later.
C0: assay concentration, S: plate membrane area=0.11 cm^2
• LC: LC20 or LC30 HPLC system manufactured by Shimadzu Corp. • Column: Phenomenex Kinetex C18 (50 mm×2.1 mm, 2.6 μm) • Column temperature: 40° C. • Flow rate: 0.3 mL/min • Mobile phase A: 0.1% aqueous formic acid solution • Mobile phase B: 0.1% formic acid, 50% acetonitrile/methanol mixed solution • Gradient: 0-2 min; A/B=90/10 to 10/90, 2-3 min; A/B=10/90, 3-3.01 min; A/B=10/90 to 90/10 • MS: Q-Trap3200 manufactured by AB Sciex Pte. Ltd. • Ionization: ESI • Mode: Positive
• LC: LC20 or LC30 HPLC system manufactured by Shimadzu Corp. • Column: Phenomenex Kinetex C18 (100 mm×2.1 mm, 2.6 μm) • Column temperature: 40° C. • Flow rate: 0.25 mL/min • Mobile phase A: 0.1% aqueous formic acid solution • Mobile phase B: 0.1% formic acid, 50% acetonitrile/methanol mixed solution • Gradient: 0-3 min; A/B=90/10, 3-11 min; A/B=90/10 to 5/95, 11-15 min; A/B=5/95, 15-15.1 min; A/B=5/95 to 90/10 • UV detector: photodiode array detector
A: Papp>1×10^−6 (cm/sec), B: 1×10^−6 (cm/sec)≥Papp>5×10^−7 (cm/sec), C: 5×10^−7 (cm/sec)≥Papp>1×10^−7 (cm/sec), or D: Papp≤1×10^−7 (cm/sec).
By Papp A→B is commonly meant how fast a substance crosses the layer from the apical side. High values mean fast passage, low ones slow passage. Molecule `O=C(O)C[C@H](NC(=O)CNC(=O)c1cc(NC2=NCC(F)CN2)c2cn[nH]c2c1)c1cc(OC(F)F)cc(-n2cccn2)c1` (stereo partly drawn) [29-(b), (3S)-3-(3-(difluoromethoxy)-5-(1H-pyrazol-1-yl)phenyl)-3-(2-(4-((5-fluoro-1,4,5,6-tetrahydropyrimidin-2-yl)amino)-1H-indazole-6-carboxamido)acetamido)propanoic acid] had a Papp A→B at 90 min, 10 µM of 0.1 to 0.5 ×10⁻⁶ cm/s.
For the molecule `O=C(O)C[C@H](NC(=O)CNC(=O)c1cc(NC2=NCC(F)CN2)c2cn[nH]c2c1)c1cc(OC(F)F)cc(OC(F)F)c1` (stereo partly drawn) [30-(b), (3S)-3-(3,5-bis(difluoromethoxy)phenyl)-3-(2-(4-((5-fluoro-1,4,5,6-tetrahydropyrimidin-2-yl)amino)-1H-indazole-6-carboxamido)acetamido)propanoic acid], the Papp A→B at 90 min, 10 µM was in the range of 0.5 to 1 ×10⁻⁶ cm/s.
The same measure for `O=C(O)C[C@H](NC(=O)CNC(=O)c1cc(NC2=NCC(F)CN2)c2cn[nH]c2c1)c1cc(Cl)cc(OC(F)(F)F)c1` (stereo partly drawn) [31-(b), (3S)-3-(3-chloro-5-(trifluoromethoxy)phenyl)-3-(2-(4-((5-fluoro-1,4,5,6-tetrahydropyrimidin-2-yl)amino)-1H-indazole-6-carboxamido)acetamido)propanoic acid]: greater than 1 ×10⁻⁶ cm/s; for `O=C(O)C[C@H](NC(=O)CNC(=O)c1cc(NC2=NCC(F)CN2)c2cn[nH]c2c1)c1cc(Br)cc(OC(F)(F)F)c1` (stereo partly drawn) [32-(b), (3S)-3-(3-bromo-5-(trifluoromethoxy)phenyl)-3-(2-(4-((5-fluoro-1,4,5,6-tetrahydropyrimidin-2-yl)amino)-1H-indazole-6-carboxamido)acetamido)propanoic acid]: greater than 1 ×10⁻⁶ cm/s.
The same measure for `O=C(O)C[C@H](NC(=O)CNC(=O)c1cc(NC2=NCC(F)CN2)c2cn[nH]c2c1)c1cc(OC(F)(F)F)ccc1F` (stereo partly drawn) [33-(b), (3S)-3-(2-(4-((5-fluoro-1,4,5,6-tetrahydropyrimidin-2-yl)amino)-1H-indazole-6-carboxamido)acetamido)-3-(2-fluoro-5-(trifluoromethoxy)phenyl)propanoic acid]: greater than 1 ×10⁻⁶ cm/s.
For `O=C(O)C[C@H](NC(=O)CNC(=O)c1cc(NC2=NCC(F)CN2)c2cn[nH]c2c1)c1ccc(F)c(OC(F)(F)F)c1` (stereo partly drawn) [34-(b), (3S)-3-(2-(4-((5-fluoro-1,4,5,6-tetrahydropyrimidin-2-yl)amino)-1H-indazole-6-carboxamido)acetamido)-3-(4-fluoro-3-(trifluoromethoxy)phenyl)propanoic acid], the apparent permeability from apical to basolateral (Papp A→B) at 90 min, 10 µM is greater than 1 ×10⁻⁶ cm/s.
The same measure for `O=C(O)C[C@H](NC(=O)CNC(=O)c1cc(NC2=NCC(F)CN2)c2cn[nH]c2c1)c1cccc(C(F)(F)F)c1` (stereo partly drawn) [35-(b), (3S)-3-(2-(4-((5-fluoro-1,4,5,6-tetrahydropyrimidin-2-yl)amino)-1H-indazole-6-carboxamido)acetamido)-3-(3-(trifluoromethyl)phenyl)propanoic acid]: greater than 1 ×10⁻⁶ cm/s.
Molecule `O=C(O)C[C@H](NC(=O)CNC(=O)c1cc(NC2=NCC(F)CN2)c2cn[nH]c2c1)c1cccc(OC(F)(F)F)c1` (stereo partly drawn) [36-(b), (3S)-3-(2-(4-((5-fluoro-1,4,5,6-tetrahydropyrimidin-2-yl)amino)-1H-indazole-6-carboxamido)acetamido)-3-(3-(trifluoromethoxy)phenyl)propanoic acid] showed a Papp A→B at 90 min, 10 µM greater than 1 ×10⁻⁶ cm/s.
For `O=C(O)C[C@H](NC(=O)CNC(=O)c1cc(NC2=NCC(F)CN2)c2cn[nH]c2c1)c1cccc(OC(F)F)c1` (stereo partly drawn) [37-(b), (3S)-3-(3-(difluoromethoxy)phenyl)-3-(2-(4-((5-fluoro-1,4,5,6-tetrahydropyrimidin-2-yl)amino)-1H-indazole-6-carboxamido)acetamido)propanoic acid] the value was greater than 1 ×10⁻⁶ cm/s; for `O=C(O)C[C@H](NC(=O)CNC(=O)c1cc(NC2=NCC(F)CN2)c2cn[nH]c2c1)c1cccc(C(F)F)c1` (stereo partly drawn) [38-(b), (3S)-3-(3-(difluoromethyl)phenyl)-3-(2-(4-((5-fluoro-1,4,5,6-tetrahydropyrimidin-2-yl)amino)-1H-indazole-6-carboxamido)acetamido)propanoic acid], greater than 1 ×10⁻⁶ cm/s.
Molecule `O=C(O)C[C@H](NC(=O)CNC(=O)c1cc(NC2=NCC(F)CN2)c2cn[nH]c2c1)c1cccc(C2CC2)c1` (stereo partly drawn) [39-(b), (3S)-3-(3-cyclopropylphenyl)-3-(2-(4-((5-fluoro-1,4,5,6-tetrahydropyrimidin-2-yl)amino)-1H-indazole-6-carboxamido)acetamido)propanoic acid] had a Papp A→B at 90 min, 10 µM greater than 1 ×10⁻⁶ cm/s.
As to `O=C(O)C[C@H](NC(=O)CNC(=O)c1cc(NC2=NCC(F)CN2)c2cn[nH]c2c1)c1cccc(OC2CC2)c1` (stereo partly drawn) [40-(b), (3S)-3-(3-cyclopropoxyphenyl)-3-(2-(4-((5-fluoro-1,4,5,6-tetrahydropyrimidin-2-yl)amino)-1H-indazole-6-carboxamido)acetamido)propanoic acid], the Papp A→B at 90 min, 10 µM was greater than 1 ×10⁻⁶ cm/s.
The same measure for `O=C(O)C[C@H](NC(=O)CNC(=O)c1cc(NC2=NCC(F)CN2)c2cn[nH]c2c1)c1cccc(Cl)c1` (stereo partly drawn) [41-(b), (3S)-3-(3-chlorophenyl)-3-(2-(4-((5-fluoro-1,4,5,6-tetrahydropyrimidin-2-yl)amino)-1H-indazole-6-carboxamido)acetamido)propanoic acid]: greater than 1 ×10⁻⁶ cm/s; for `O=C(O)C[C@H](NC(=O)CNC(=O)c1cc(NC2=NCC(F)CN2)c2cn[nH]c2c1)c1cccc(Br)c1` (stereo partly drawn) [42-(b), (3S)-3-(3-bromophenyl)-3-(2-(4-((5-fluoro-1,4,5,6-tetrahydropyrimidin-2-yl)amino)-1H-indazole-6-carboxamido)acetamido)propanoic acid]: greater than 1 ×10⁻⁶ cm/s; for `O=C(O)C[C@H](NC(=O)CNC(=O)c1cc(NC2=NCC(F)CN2)c2cn[nH]c2c1)c1cccc(-n2cccn2)c1` (stereo partly drawn) [43-(b), (3S)-3-(3-(1H-pyrazol-1-yl)phenyl)-3-(2-(4-((5-fluoro-1,4,5,6-tetrahydropyrimidin-2-yl)amino)-1H-indazole-6-carboxamido)acetamido)propanoic acid]: greater than 1 ×10⁻⁶ cm/s.
For `Cc1cc(C)n(-c2cccc([C@H](CC(=O)O)NC(=O)CNC(=O)c3cc(NC4=NCC(F)CN4)c4cn[nH]c4c3)c2)n1` (stereo partly drawn) [44-(b), (3S)-3-(3-(3,5-dimethyl-1H-pyrazol-1-yl)phenyl)-3-(2-(4-((5-fluoro-1,4,5,6-tetrahydropyrimidin-2-yl)amino)-1H-indazole-6-carboxamido)acetamido)propanoic acid] the value was 0.5 to 1 ×10⁻⁶ cm/s; for `O=C(O)C[C@H](NC(=O)CNC(=O)c1cc(NC2=NCC(F)CN2)c2cn[nH]c2c1)c1cccc(N2CCOCC2)c1` (stereo partly drawn) [45-(b), (3S)-3-(2-(4-((5-fluoro-1,4,5,6-tetrahydropyrimidin-2-yl)amino)-1H-indazole-6-carboxamido)acetamido)-3-(3-morpholinophenyl)propanoic acid], 0.5 to 1 ×10⁻⁶ cm/s.
Take `O=C(O)C[C@H](NC(=O)CNC(=O)c1cc(NC2=NCC(F)CN2)c2cn[nH]c2c1)c1ccc(OC(F)F)cc1` (stereo partly drawn) [46-(b), (3S)-3-(4-(difluoromethoxy)phenyl)-3-(2-(4-((5-fluoro-1,4,5,6-tetrahydropyrimidin-2-yl)amino)-1H-indazole-6-carboxamido)acetamido)propanoic acid]: the Papp A→B at 90 min, 10 µM was greater than 1 ×10⁻⁶ cm/s.
`O=C(O)C[C@H](NC(=O)CNC(=O)c1cc(NC2=NCC(F)CN2)c2cn[nH]c2c1)c1ccc(C(F)(F)F)cc1` (stereo partly drawn) [47-(b), (3S)-3-(2-(4-((5-fluoro-1,4,5,6-tetrahydropyrimidin-2-yl)amino)-1H-indazole-6-carboxamido)acetamido)-3-(4-(trifluoromethyl)phenyl)propanoic acid] registered an apparent permeability from apical to basolateral (Papp A→B) at 90 min, 10 µM greater than 1 ×10⁻⁶ cm/s.
